Broadly, the IC50 is the concentration needed to halve the response being measured. By Vmax is commonly meant the top rate of the reaction or transport when substrate is in excess. For orientation: Ki means the equilibrium dissociation constant of an inhibitor or competing ligand from its target.

Assay [1] has as its target acetylcholinesterase from Electrophorus electricus (AChE) (Electrophorus electricus, UniProt O42275). As to the kind of experiment: biochemical. The settings on record: for SI (BuChE/AChE): selective index = IC50 BuChE/AChE. The source says: (§1) The materials, equipment, AChE, BuChE, α-glucosidase inhibitory, and DNA hydrolytic cleavage actions are given as supplementary information.
(§2) The results were expressed as IC50 and selective index (SI=BuChE/AChE) values.

Assay [2] has as its target T1, butyrylcholinesterase from equine serum (BuChE) (Equus caballus, UniProt P81908).
T1 construct: butyrylcholinesterase from equine serum (BuChE); from tissue; host or cells: equine serum
As to the kind of experiment: BuChE inhibition. Type of assay: biochemical.
Description: as §1, §2

Assay [3] addresses T2, AChE (Electrophorus electricus, UniProt O42275). Briefly: AChE inhibition mechanism (Lineweaver–Burk and Dixon plots). It counts as biochemical. To be noted: for Vmax: substrate acetylthiocholine iodide. The source says: Acetylthiocholine iodide was used as a substrate for AChE inhibition.
The target in assay [4] is T2, AChE. As to the kind of experiment: Compound-protein binding by UV-Vis spectroscopy. The settings on record: AChE 10 µM; BDPY-4 5, 10, 15 and 20 µM. As to the method: To determine the structural change of AChE (10 µM) induced by BDPY-4, we measured the UV-Vis spectroscopy by adding the compound (5, 10, 15, and 20 µM) into AChE solution (10 µM). AChE has an absorption peak at 282 nm due to aromatic amino acids.

The target in assay [5] is α-glucosidase from Saccharomyces cerevisiae. As to the kind of experiment: α-Glucosidase inhibition. It counts as biochemical.
Description: as §1
The inhibitory properties of the compounds on α-glucosidase were investigated according to our previously reported methods. The results were expressed as IC50 values.

acetylcholinesterase from Electrophorus electricus (AChE), sequence (O42275 24-633): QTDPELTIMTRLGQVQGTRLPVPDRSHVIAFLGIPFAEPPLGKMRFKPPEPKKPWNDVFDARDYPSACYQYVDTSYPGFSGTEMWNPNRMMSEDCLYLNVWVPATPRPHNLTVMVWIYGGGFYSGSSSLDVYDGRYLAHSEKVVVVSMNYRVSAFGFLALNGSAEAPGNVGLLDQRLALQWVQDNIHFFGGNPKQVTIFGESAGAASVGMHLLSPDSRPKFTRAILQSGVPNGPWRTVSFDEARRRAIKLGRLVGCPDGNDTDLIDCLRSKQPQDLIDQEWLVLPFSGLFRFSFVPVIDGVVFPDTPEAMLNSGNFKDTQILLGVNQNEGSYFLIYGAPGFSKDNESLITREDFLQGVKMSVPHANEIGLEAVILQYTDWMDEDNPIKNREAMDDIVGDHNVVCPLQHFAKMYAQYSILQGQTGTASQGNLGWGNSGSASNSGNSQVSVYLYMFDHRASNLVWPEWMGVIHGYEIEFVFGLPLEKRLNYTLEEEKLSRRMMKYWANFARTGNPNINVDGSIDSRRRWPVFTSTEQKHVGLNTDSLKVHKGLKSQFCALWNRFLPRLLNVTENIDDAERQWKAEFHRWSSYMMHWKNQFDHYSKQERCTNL
T2 sequence (O42275 24-633): as above
T1 sequence (P81908 whole entry): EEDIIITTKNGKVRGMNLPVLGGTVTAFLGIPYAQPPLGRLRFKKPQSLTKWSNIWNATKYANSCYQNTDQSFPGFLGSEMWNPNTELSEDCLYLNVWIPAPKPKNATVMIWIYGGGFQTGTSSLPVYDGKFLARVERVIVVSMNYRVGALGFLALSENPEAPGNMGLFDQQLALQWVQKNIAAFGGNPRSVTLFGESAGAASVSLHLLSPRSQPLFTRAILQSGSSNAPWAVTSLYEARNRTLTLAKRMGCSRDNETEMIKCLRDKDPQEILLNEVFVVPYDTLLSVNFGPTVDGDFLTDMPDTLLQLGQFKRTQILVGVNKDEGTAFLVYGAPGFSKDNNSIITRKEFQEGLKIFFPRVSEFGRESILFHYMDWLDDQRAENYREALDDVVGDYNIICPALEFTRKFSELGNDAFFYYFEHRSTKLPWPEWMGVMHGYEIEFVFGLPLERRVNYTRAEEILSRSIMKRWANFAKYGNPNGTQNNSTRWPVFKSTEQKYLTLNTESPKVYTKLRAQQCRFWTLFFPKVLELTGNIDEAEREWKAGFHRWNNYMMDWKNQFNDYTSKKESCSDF

On to `CC1=CC(/C=C/c2ccc(OCCCc3ccncc3)cc2)=[N+]2C1=C(c1ccc(OCCCc3ccncc3)cc1)c1c(C)cc(/C=C/c3ccc(OCCCc4ccncc4)cc3)n1[B-]2(F)F` [BDPY-4], for which the IC50 in assay [1] was found to be 54.8 ± 4.51 µM; in assay [2], 150 ± 6.09 µM; in assay [5], 95 ± 4.77 µM. Further, the “SI (BuChE/AChE)” value in assay [1] is 2.74. Moreover, the figures for the Vmax in assay [3] (50 µM BDPY-4) and in assay [3] (100 µM BDPY-4) were 196.08 µM/min and 126.58 µM/min, respectively. In addition, the Ki in assay [3] (Dixon plot, read-out: Ki (inhibition constant)) was 57.2 ± 0.2 µM. The Inhibitory type entry in assay [3] (Lineweaver–Burk plot) is recorded as “noncompetitive inhibitor”. In assay [4], the “Change of AChE absorbance” value is “hyperchromism”. Further, the “Shift of AChE absorption peak” value in assay [4] is “shifted from 282 nm to 285 nm”.
Consider `CC1=CC(/C=C/c2ccc(OCCCc3cccnc3)cc2)=[N+]2C1=C(c1ccc(OCCCc3ccncc3)cc1)c1c(C)cc(/C=C/c3ccc(OCCCc4cccnc4)cc3)n1[B-]2(F)F` [BDPY-5], for which the IC50 in assay [1] amounted to 64.9 ± 3.89 µM; in assay [2], 170 ± 4.33 µM; in assay [5], 106 ± 5.03 µM. Moreover, the “SI (BuChE/AChE)” value in assay [1] was determined as 2.62.
For the compound `CC1=CC(C)=[N+]2C1=C(c1ccc(OCCCc3ccncc3)cc1)c1c(C)cc(C)n1[B-]2(F)F` [BDPY-2], the IC50 stood at 72.5 ± 2.95 µM in assay [1], 185 ± 5.49 µM in assay [2] and 219 ± 8.71 µM in assay [5]. In addition, the “SI (BuChE/AChE)” value in assay [1] was found to be 2.55.

For the origin of these results see PMC8596534, “Pyridine substituted BODIPYs: synthesis, characterization and cholinesterease, α-glucosidase inhibitory, DNA hydrolytic cleavage effects” (Turkish Journal of Chemistry, 2021).
